# Data taken from patent US20240269088A1, “PAIN RELIEF PATCH” (CS MEDICA A/S, priority 2021, published 2024).
# System: pain
# Assay: Comparison of skin patches formulated with type A versus type B crystalline CBD
# Type: in vivo
# From the text: The “potency” and/or “activity” of “type A” CBD can e.g. be determined by comparing the effect using essentially identical compositions with the exception of the type and/or quantity of CBD used. Said potency, activity and or effect can e.g. be determined essentially as disclosed in the Examples by replacing the placebo with the “B-type” CBD comprising formulation. Alternatively, the potency can be determined in the quantity of CBD needed to provide the same effect, such as pain relief.
# Two different sets of skin patches are provided according to Example 1, e.g. formulation A or F, the only difference being that the crystalline CBD used in the formulation is either of type A (needle-like crystals; FIG. 9) or type B (bunch/cluster-like; FIG. 10).
# Type A crystalline CBD is sourced from Enecta, while type B CBD is sourced from Pharma Hemp.
# Such tests can e.g. be performed, mutatis mutandis, according to Examples 1-4.
compound,measurement,setting,value
"C=C(C)[C@@H]1CCC(C)=C[C@H]1c1c(O)cc(CCCCC)cc1O [type A CBD, Cannabidiol]",Potency of CBD with needle-like crystal structure compared with CBD of crystal structure B,"observed by the inventors, see Example 6",significantly more potent
same,Activity of skin patch with type A CBD compared with comparable skin patch with type B CBD,"skin patches according to Example 1, e.g. formulation A or F, only the crystalline CBD differs",significantly more active
